According to patent US20260055097A9, “NRF2 PROTEIN DEGRADERS” (Ganymede Oncology, Inc., priority 2022, published 2026):
Read-outs that look alike come from different tables or passages of the source. Blank lines part the entries; values can stand above or below the molecule they belong to.

What was measured:
[1] = test system: various cancer cell lines; experiment: Cancer cell testing, inhibitory activity in various cancer cell lines (CellTiter-Glo, 72 hours); assay type: cell-based
Experimental: The inhibitory activity of representative Compounds of the Disclosure was tested in various cancer cell lines according to the following protocol.
Cells were harvested from flasks into cell culture media and cell numbers were counted. Cells were then diluted with culture medium to the desired density, and 40 μL of cell suspension were added into each well of a 384-well cell culture plate (Corning, #3764). Plates were covered with lids and placed at room temperature for 30 minutes without shaking, and then transferred into a 37° C. 5% CO2 incubator.
Cpd. Nos. 30 and 34 were dissolved in DMSO to form a 10 mM stock solution. Paclitaxel as the control compound was dissolved in DMSO to form a 0.33 mM stock solution. 45 μL of stock solution was transferred to a 384 pp-plate and 3-fold, 10-point dilutions were performed by transferring 15 μL of compound into 30 μL of DMSO using a TECAN (EVO200) liquid handler. Plates were spun at room temperature at 1,000 RPM for 1 minute, and shaken at a plate shaker for 2 minutes. […] of diluted compound were transferred from compound source plate into the cell plate. After compound treatment for 72 hours, CTG detection was performed for compound treatment plates as described in the “Detection” section.
CellTiter Glo reagents were thawed and equilibrated to room temperature before the experiment. Plates were removed from incubators and equilibrated at room temperature for 15 minutes. 40 μL of CellTiter-Glo reagent was added to each well to be detected at 1:1 to culture medium. Then, plates were placed at room temperature for 30 min followed by reading on Ensight.
Inhibition activity was calculated following the formula below:
[formula] • HC: 0.3% DMSO, LC: 1 μM Paclitaxel
IC50S were calculated by fitting the Curve using Xlfit (v5.3.1.3) according to the following equation: […]

Nrf2 = target: T1, Nrf2 (Homo sapiens, UniProt Q16236); experiment: Nrf2 degradation in A549 HiBiT-Nrf2 cells, Nano-Glo HiBiT lytic detection (HiBiT readout); assay type: cell-based; set-up: host or cells: A549 HiBiT-Nrf2 cells (engineered line bought from Promega)
T1 sequence (Q16236 1-605): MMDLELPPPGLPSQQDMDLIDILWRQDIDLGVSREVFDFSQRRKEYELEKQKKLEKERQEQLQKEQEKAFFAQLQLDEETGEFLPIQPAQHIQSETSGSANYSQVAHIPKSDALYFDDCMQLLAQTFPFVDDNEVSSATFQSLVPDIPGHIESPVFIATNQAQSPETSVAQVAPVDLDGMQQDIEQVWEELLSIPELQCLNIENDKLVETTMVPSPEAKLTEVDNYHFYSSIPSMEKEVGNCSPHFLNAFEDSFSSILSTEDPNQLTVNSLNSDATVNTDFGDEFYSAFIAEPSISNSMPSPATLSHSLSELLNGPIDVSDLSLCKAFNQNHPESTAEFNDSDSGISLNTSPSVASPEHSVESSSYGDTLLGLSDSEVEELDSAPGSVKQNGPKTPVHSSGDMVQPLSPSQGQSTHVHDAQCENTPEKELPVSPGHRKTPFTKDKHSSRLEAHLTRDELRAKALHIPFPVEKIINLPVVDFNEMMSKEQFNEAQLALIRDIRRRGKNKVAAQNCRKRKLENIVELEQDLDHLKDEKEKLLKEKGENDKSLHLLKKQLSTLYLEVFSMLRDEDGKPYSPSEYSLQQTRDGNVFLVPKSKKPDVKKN
In short: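 A549 HiBiT-Nrf2 cells seeded at 5,000 cells/well in Ham's F-12 with 10% FBS, then treated next day for 6 h and 20 h at 37 °C, 5% CO2. Nrf2 degradation read by Nano-Glo HiBiT lytic luminescence after 30 min at room temperature; staurosporine served as control.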

[2] = HCC15, HCC-15, LUNG, KEAP1 p.G364C
[3] = HEC59, UTERINE/ENDOMETRIAL, NRF2 p.N329D
[4] = HEC151, UTERINE/ENDOMETRIAL, KEAP1 p.A34S, NRF2 p.L23GfsTer5
[5] = HEC-251, HEC251, UTERINE/ENDOMETRIAL, KEAP1 p.Q227R, NRF2 p.K516T
[6] = HEC-265, UTERINE/ENDOMETRIAL, KEAP1 p.R483C
[7] = HO1U1, HEAD & NECK, NRF2 p.E82D
[8] = Homo sapiens, A549, A549, LUNG, KEAP1 p.G333C
[9] = Homo sapiens, COR-L88, CORL88, LUNG, NRF2 p.Q26P
[10] = Homo sapiens, EBC-1, EBC1, LUNG, NRF2 p.D77V
[11] = Homo sapiens, HCC44, HCC44, UTERINE/ENDOMETRIAL, KEAP1 p.F211C
[12] = Homo sapiens, HCC95, HCC-95, LUNG, no KEAP1/NRF2 mutation listed
[13] = Homo sapiens, HEC-1-A, HEC1A, UTERINE/ENDOMETRIAL, KEAP1 p.Y33C, NRF2 G31R
[14] = Homo sapiens, HEC-1B, HEC1B, UTERINE/ENDOMETRIAL, NRF2 p.G31R
[15] = Homo sapiens, KYSE-70, KYSE70, ESOPHAGEAL, NRF2 p.W24C
[16] = Homo sapiens, KYSE-180, KYSE180, ESOPHAGEAL, NRF2 p.P278Q
[17] = Homo sapiens, KYSE-520, KYSE520, ESOPHAGEAL, NRF2 p.T80I
[18] = Homo sapiens, MES-SA, MESSA, UTERINE/ENDOMETRIAL, NRF2 p.E79K
[19] = Homo sapiens, MRC5, MRC-5, NORMAL LUNG FIBROBLAST
[20] = Homo sapiens, NCI-H23, NCI-H23, LUNG, KEAP1 p.Q193H
[21] = Homo sapiens, NCI-H358, NCI-H358, LUNG, no KEAP1/NRF2 mutation listed
[22] = Homo sapiens, NCI-H460, NCI-H460, LUNG, KEAP1 p.D236H
[23] = Homo sapiens, NCI-H1792, NCI-H1792, LUNG, KEAP1 p.G462W
[24] = Homo sapiens, NCI-H1944, NCI-H1944, LUNG, KEAP1 p.R320L
[25] = Homo sapiens, NCI-H2030, NCI-H2030, LUNG, KEAP1 p.V568F
[26] = Homo sapiens, NCI-H2122, NCI-H2122, LUNG, KEAP1 p.A170_R204del
[27] = Homo sapiens, NCI-H2126, NCI-H2126, LUNG, KEAP1 p.R320L
[28] = Homo sapiens, NCI-H2228, NCI-H2228, LUNG, NRF2 p.G31A
[29] = Homo sapiens, RL95-2, RL95-2, UTERINE/ENDOMETRIAL, KEAP1 p.R116W
[30] = Homo sapiens, SHP77, SHP-77, LUNG, KEAP1 p.D294Y
[31] = Homo sapiens, UMC-11, UMC11, LUNG, KEAP1 p.G571A
[32] = JHOC-5, UTERINE/ENDOMETRIAL, KEAP1 p.R483H
[33] = MORCPR, LUNG, KEAP1 p.K551SfsTer44
[34] = NCI-H322, NCI-H322, LUNG, KEAP1 p.R460S
[35] = NCI-H1435, NCI-H1435, LUNG, KEAP1 p.R413L
[36] = NCI-H1688, NCI-H1688, LUNG, KEAP1 p.G511S
[37] = NCI-H2066, NCI-H2066, LUNG, KEAP1 p.P361L
[38] = NCI-H2110, NCI-H2110, LUNG, KEAP1 p.G429C
[39] = NCI-H2172, NCI-H2172, LUNG, KEAP1 p.G430C
[40] = OE21, OE21, ESOPHAGEAL, NRF2 p.D318H
[41] = RERF-LC-Sq1, RERFLCSQ1, LUNG, NRF2 p.D29H
[42] = RMUG-S, UTERINE/ENDOMETRIAL, KEAP1 p.G603V
[43] = SW579, SW579, HEAD & NECK, NRF2 p.D77Y
[44] = 6 h, read-out: DC50 (nM) at 6 h
[45] = 20 h, read-out: DC50 (nM) at 20 h

IC50 [1, 2]: 4.1 nM
IC50 [1, 3]: 2.8 nM
IC50 [1, 4]: 4.8 nM
IC50 [1, 5]: < 1.5 nM
IC50 [1, 6]: 8.7 nM
IC50 [1, 7]: 12.8 nM
IC50 [1, 8]: 4.3 nM
IC50 [1, 9]: < 1.5 nM
IC50 [1, 10]: 11.3 nM
IC50 [1, 11]: 397 nM
IC50 [1, 12]: 302 nM
IC50 [1, 13]: 2.9 nM
IC50 [1, 14]: 31.9 nM
IC50 [1, 15]: 8.8 nM
IC50 [1, 16]: 4 nM
IC50 [1, 17]: 1.7 nM
IC50 [1, 18]: 4.7 nM
IC50 [1, 20]: 126 nM
IC50 [1, 21]: 11.6 nM
IC50 [1, 22]: 15500 nM
IC50 [1, 23]: 6.5 nM
IC50 [1, 24]: 25.2 nM
IC50 [1, 25]: 169 nM
IC50 [1, 26]: 54.9 nM
IC50 [1, 27]: 98.9 nM
IC50 [1, 28]: 12.6 nM
IC50 [1, 29]: 2.8 nM
IC50 [1, 30]: 29.6 nM
IC50 [1, 31]: 5.8 nM
IC50 [1, 32]: 11.5 nM
IC50 ([1]; LK-2, LUNG, NRF2 p.E79K): < 1.5 nM
IC50 [1, 33]: 3.4 nM
IC50 [1, 34]: 3.9 nM
IC50 ([1]; NCI-H920, LUNG, KEAP1 p.G603V): 191 nM
IC50 [1, 35]: 38 nM
IC50 [1, 36]: < 2 nM
IC50 [1, 37]: 4.4 nM
IC50 [1, 38]: 5.1 nM
IC50 [1, 39]: 5.9 nM
IC50 [1, 40]: 156 nM
IC50 [1, 41]: 12.6 nM
IC50 [1, 42]: 21.5 nM
IC50 ([1]; SNU2535, LUNG, NRF2 p.D29H): 8.9 nM
IC50 [1, 43]: 6.7 nM
DC50 (Nrf2; [44]): < 300 nM
DC50 (Nrf2; [45]): > 3000 nM
SMILES: Cc1sc(NC(=O)Cc2ccc(F)c(OCCOCCNc3ccc4c(c3)CN(C3CCC(=O)NC3=O)C4=O)c2)nc1-c1ccc2c(c1)CCN2C(=O)c1cncn1C (stereo not shown) [Cpd. No. 30, 2-(3-(2-(2-((2-(2,6-dioxopiperidin-3-yl)-1-oxoisoindolin-5-yl)amino)ethoxy)ethoxy)-4-fluorophenyl)-N-(5-methyl-4-(1-(1-methyl-1H-imidazole-5-carbonyl)indolin-5-yl)thiazol-2-yl)acetamide]
IC50 [1, 19]: 12.5 nM

IC50 [1, 2]: 30.1 nM
IC50 [1, 3]: 20.4 nM
IC50 [1, 4]: 86.7 nM
IC50 [1, 5]: 10.6 nM
IC50 [1, 6]: 66.7 nM
IC50 [1, 7]: 54.8 nM
IC50 [1, 8]: 20.6 nM
IC50 [1, 9]: 4.4 nM
IC50 [1, 10]: 152 nM
IC50 [1, 11]: > 30000 nM
IC50 [1, 12]: > 30000 nM
IC50 [1, 13]: 20.3 nM
IC50 [1, 14]: > 30000 nM
IC50 [1, 15]: 33.6 nM
IC50 [1, 16]: 45.8 nM
IC50 [1, 17]: 13.2 nM
IC50 [1, 18]: 35.1 nM
IC50 [1, 20]: > 30000 nM
IC50 [1, 21]: 44.9 nM
IC50 [1, 22]: > 30000 nM
IC50 [1, 23]: 41.7 nM
IC50 [1, 24]: 107 nM
IC50 [1, 25]: 224 nM
IC50 [1, 26]: > 30000 nM
IC50 [1, 27]: > 30000 nM
IC50 [1, 28]: 57.4 nM
IC50 [1, 29]: 20.9 nM
IC50 [1, 30]: 22.5 nM
IC50 [1, 31]: 12.2 nM
IC50 [1, 32]: 54.2 nM
IC50 ([1]; LK-2, LUNG, NRF2 p.E79K): 9.4 nM
IC50 [1, 33]: 33.2 nM
IC50 [1, 34]: 23.9 nM
IC50 ([1]; NCI-H920, LUNG, KEAP1 p.G603V): > 30000 nM
IC50 [1, 35]: 150 nM
IC50 [1, 36]: 13 nM
IC50 [1, 37]: 15.9 nM
IC50 [1, 38]: 42.1 nM
IC50 [1, 39]: 14.2 nM
IC50 [1, 40]: > 30000 nM
IC50 [1, 41]: 85.6 nM
IC50 [1, 42]: 18.1 nM
IC50 ([1]; SNU2535, LUNG, NRF2 p.D29H): > 30000 nM
IC50 [1, 43]: 73.1 nM
DC50 (Nrf2; [44]): < 300 nM
DC50 (Nrf2; [45]): < 300 nM
SMILES: Cc1sc(NC(=O)Cc2cccc(OCCOCCNc3cccc4c3C(=O)N(C3CCC(=O)NC3=O)C4=O)c2)nc1-c1ccc2c(c1)CCN2C(=O)C1CC1 (stereo not shown) [Cpd. No. 34, N-(4-(1-(cyclopropanecarbonyl)indolin-5-yl)-5-methylthiazol-2-yl)-2-(3-(2-(2-((2-(2,6-dioxopiperidin-3-yl)-1,3-dioxoisoindolin-4-yl)amino)ethoxy)ethoxy)phenyl) acetamide]
IC50 [1, 19]: 35.4 nM
